Experimental data from PubChem BioAssay (NCI).
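Step 1: Grow cells in 96-well plates. Step 2: Expose to compound for 48 hours at 5 concentrations. Step 3: Interpolate endpoints linearly; if unreached, use highest concentration. The concentration for full growth arrest is given as TGI.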

Legend:
Experiment in all cases: inhibition of tumour cell growth, NCI panel, 48 h
U251 CNS = test system: U251 CNS
SN12C renal = test system: SN12C renal
MOLT-4 leukemia = test system: MOLT-4 leukemia
UACC-257 melanoma = test system: UACC-257 melanoma
NCI-H23 lung = test system: NCI-H23 lung
SR leukemia = test system: SR leukemia
HCC-2998 colon = test system: HCC-2998 colon
UACC-62 melanoma = test system: UACC-62 melanoma
HCT-116 colon = test system: HCT-116 colon
SF-268 CNS = test system: SF-268 CNS
A498 renal = test system: A498 renal
ACHN renal = test system: ACHN renal
NCI-H522 lung = test system: NCI-H522 lung
SK-MEL-28 melanoma = test system: SK-MEL-28 melanoma
SNB-19 CNS = test system: SNB-19 CNS
HL-60(TB) leukemia = test system: HL-60(TB) leukemia
IGROV1 ovarian = test system: IGROV1 ovarian
LOX IMVI melanoma = test system: LOX IMVI melanoma
HT29 colon = test system: HT29 colon
MDA-MB-435 = test system: MDA-MB-435

## Cc1ccc(S(=O)(=O)c2c3[nH]c4ccccc4nc3n3c2nc2ccccc23)cc1
U251 CNS
  TGI: > 100 µM
SN12C renal
  TGI: > 100 µM
MOLT-4 leukemia
  TGI: > 100 µM
UACC-257 melanoma
  TGI: > 100 µM
NCI-H23 lung
  TGI: > 100 µM
SR leukemia
  TGI: > 100 µM
HCC-2998 colon
  TGI: > 100 µM
UACC-62 melanoma
  TGI: > 100 µM
HCT-116 colon
  TGI: > 100 µM
SF-268 CNS
  TGI: > 100 µM
A498 renal
  TGI: > 100 µM
ACHN renal
  TGI: > 100 µM
NCI-H522 lung
  TGI: > 100 µM
SK-MEL-28 melanoma
  TGI: > 100 µM
SNB-19 CNS
  TGI: > 100 µM
HL-60(TB) leukemia
  TGI: > 100 µM
IGROV1 ovarian
  TGI: > 100 µM
LOX IMVI melanoma
  TGI: > 100 µM

## CCCCCCCSCC1C(=O)C23C(O)C1CCC2C12COC3(O)C(O)C1C(C)(C)CCC2O (stereo not given)
U251 CNS
  TGI: 22.7 µM
SN12C renal
  TGI: 23.6 µM
MOLT-4 leukemia
  TGI: 28.2 µM
UACC-257 melanoma
  TGI: 19.4 µM
NCI-H23 lung
  TGI: 34 µM
SR leukemia
  TGI: 23.6 µM
HCC-2998 colon
  TGI: 31.4 µM
UACC-62 melanoma
  TGI: 24 µM
HCT-116 colon
  TGI: 18.7 µM
SF-268 CNS
  TGI: 33.9 µM
A498 renal
  TGI: 26.9 µM
ACHN renal
  TGI: 24.9 µM
NCI-H522 lung
  TGI: 3.04 µM
SK-MEL-28 melanoma
  TGI: 22.7 µM
SNB-19 CNS
  TGI: 33.9 µM
HL-60(TB) leukemia
  TGI: 16.3 µM
IGROV1 ovarian
  TGI: 36.2 µM
HT29 colon
  TGI: 30 µM
LOX IMVI melanoma
  TGI: 29.2 µM

## COc1ccc([C@H](NC(=O)c2ccccc2)[C@@H](O)C(=O)O[C@H]2C[C@@]3(O)C(OC(=O)c4ccccc4)C4[C@](C)(C(=O)[C@H](OC(C)=O)C(=C2C)C3(C)C)[C@@H](O)C[C@H]2OC[C@@]42OC(C)=O)cc1 (stereo not given in full)
SN12C renal
  TGI: > 10 µM
MOLT-4 leukemia
  TGI: > 5.11 µM
UACC-257 melanoma
  TGI: > 10 µM
NCI-H23 lung
  TGI: > 10 µM
SR leukemia
  TGI: 0.694 µM
HCC-2998 colon
  TGI: 0.091 µM
UACC-62 melanoma
  TGI: > 10 µM
SF-268 CNS
  TGI: > 10 µM
ACHN renal
  TGI: > 10 µM
SK-MEL-28 melanoma
  TGI: > 10 µM
SNB-19 CNS
  TGI: > 10 µM
HL-60(TB) leukemia
  TGI: 0.0279 µM
IGROV1 ovarian
  TGI: > 10 µM
HT29 colon
  TGI: 0.0656 µM
LOX IMVI melanoma
  TGI: > 10 µM

## CC(C)CCCC(C)[C@H]1CC[C@H]2[C@@H]3CC[C@H]4C[C@@H](CCC=C(c5cc(Cl)c(O)c(C(=O)O)c5)c5cc(Cl)c(O)c(C(=O)O)c5)CC[C@]4(C)[C@H]3CC[C@]12C (stereo not given in full) (tested in a mixture with another compound)
U251 CNS
  TGI: > 50 µM
SN12C renal
  TGI: > 50 µM
MOLT-4 leukemia
  TGI: > 50 µM
NCI-H23 lung
  TGI: > 50 µM
HCC-2998 colon
  TGI: > 50 µM
UACC-62 melanoma
  TGI: > 50 µM
HCT-116 colon
  TGI: > 50 µM
SF-268 CNS
  TGI: > 50 µM
A498 renal
  TGI: > 50 µM
ACHN renal
  TGI: > 50 µM
NCI-H522 lung
  TGI: > 50 µM
MDA-MB-435
  TGI: > 50 µM
SK-MEL-28 melanoma
  TGI: > 50 µM
SNB-19 CNS
  TGI: > 50 µM
HL-60(TB) leukemia
  TGI: > 50 µM
IGROV1 ovarian
  TGI: > 50 µM
HT29 colon
  TGI: > 50 µM
LOX IMVI melanoma
  TGI: > 50 µM

## CCN(CC)c1cccc2c1C1(O)CCC3(CC21)OCCCCO3 (stereo not given)
U251 CNS
  TGI: > 100 µM
SN12C renal
  TGI: > 100 µM
MOLT-4 leukemia
  TGI: > 100 µM
UACC-257 melanoma
  TGI: > 100 µM
NCI-H23 lung
  TGI: > 100 µM
HCC-2998 colon
  TGI: > 100 µM
HCT-116 colon
  TGI: > 100 µM
SF-268 CNS
  TGI: > 100 µM
A498 renal
  TGI: > 100 µM
ACHN renal
  TGI: > 100 µM
NCI-H522 lung
  TGI: > 100 µM
SK-MEL-28 melanoma
  TGI: > 100 µM
SNB-19 CNS
  TGI: 41 µM
HL-60(TB) leukemia
  TGI: > 100 µM
IGROV1 ovarian
  TGI: > 100 µM
HT29 colon
  TGI: > 100 µM
LOX IMVI melanoma
  TGI: > 100 µM

## O=C1c2ccccc2-c2c1c(-c1ccccc1)c1n2C2(C(=O)c3ccccc3C2=O)C2C(=O)N(c3ccccc3)C(=O)C12 (stereo not given)
U251 CNS
  TGI: > 100 µM
SN12C renal
  TGI: 61.4 µM
MOLT-4 leukemia
  TGI: > 100 µM
UACC-257 melanoma
  TGI: > 100 µM
NCI-H23 lung
  TGI: 37.4 µM
UACC-62 melanoma
  TGI: 49 µM
HCT-116 colon
  TGI: 37.8 µM
SF-268 CNS
  TGI: 65.6 µM
A498 renal
  TGI: > 100 µM
ACHN renal
  TGI: > 100 µM
NCI-H522 lung
  TGI: 33.6 µM
MDA-MB-435
  TGI: 50.3 µM
SK-MEL-28 melanoma
  TGI: > 100 µM
SNB-19 CNS
  TGI: > 100 µM
IGROV1 ovarian
  TGI: > 100 µM
HT29 colon
  TGI: 41.6 µM
LOX IMVI melanoma
  TGI: 32.8 µM

## C=CCCCCCC(O)C(O)C/C=C\C/C=C\CC (stereo not given)
U251 CNS
  TGI: > 18.8 µM
SN12C renal
  TGI: > 18.8 µM
MOLT-4 leukemia
  TGI: > 18.8 µM
UACC-257 melanoma
  TGI: > 18.8 µM
NCI-H23 lung
  TGI: > 18.8 µM
SR leukemia
  TGI: > 18.8 µM
HCC-2998 colon
  TGI: > 18.8 µM
UACC-62 melanoma
  TGI: > 18.8 µM
HCT-116 colon
  TGI: > 18.8 µM
SF-268 CNS
  TGI: > 18.8 µM
ACHN renal
  TGI: > 18.8 µM
NCI-H522 lung
  TGI: > 18.8 µM
SK-MEL-28 melanoma
  TGI: > 18.8 µM
SNB-19 CNS
  TGI: > 18.8 µM
HL-60(TB) leukemia
  TGI: > 18.8 µM
IGROV1 ovarian
  TGI: > 18.8 µM
HT29 colon
  TGI: > 18.8 µM
LOX IMVI melanoma
  TGI: > 18.8 µM

## CC[N+]1(C)CCC(O)(/C=C/c2ccc(Cl)cc2)C(C(=O)/C=C/c2ccc(Cl)cc2)C1 (stereo not given)
U251 CNS
  TGI: 20.8 µM
SN12C renal
  TGI: 27.1 µM
MOLT-4 leukemia
  TGI: 6.52 µM
UACC-257 melanoma
  TGI: > 52 µM
NCI-H23 lung
  TGI: 30.3 µM
HCC-2998 colon
  TGI: 45.1 µM
UACC-62 melanoma
  TGI: 37.4 µM
HCT-116 colon
  TGI: 29.1 µM
SF-268 CNS
  TGI: > 60.6 µM
A498 renal
  TGI: 30.2 µM
ACHN renal
  TGI: 13.6 µM
MDA-MB-435
  TGI: 22.4 µM
SK-MEL-28 melanoma
  TGI: 23.2 µM
SNB-19 CNS
  TGI: 17.4 µM
HL-60(TB) leukemia
  TGI: 4.87 µM
IGROV1 ovarian
  TGI: > 22.4 µM
HT29 colon
  TGI: 14.1 µM
LOX IMVI melanoma
  TGI: > 21.6 µM

## CC1=NN(C(=O)c2ccc(Cl)cc2)C(=O)/C1=C/c1ccc(O)cc1
U251 CNS
  TGI: > 100 µM
SN12C renal
  TGI: > 100 µM
MOLT-4 leukemia
  TGI: > 100 µM
UACC-257 melanoma
  TGI: > 100 µM
NCI-H23 lung
  TGI: > 100 µM
HCC-2998 colon
  TGI: > 100 µM
UACC-62 melanoma
  TGI: > 100 µM
HCT-116 colon
  TGI: > 100 µM
SF-268 CNS
  TGI: > 100 µM
A498 renal
  TGI: > 100 µM
ACHN renal
  TGI: > 100 µM
NCI-H522 lung
  TGI: > 100 µM
SK-MEL-28 melanoma
  TGI: > 100 µM
SNB-19 CNS
  TGI: > 100 µM
HL-60(TB) leukemia
  TGI: > 100 µM
IGROV1 ovarian
  TGI: > 100 µM
HT29 colon
  TGI: > 100 µM
LOX IMVI melanoma
  TGI: > 100 µM

## COc1cc(C2c3cc4c(cc3OC(NCc3ccccc3)C2C)OCO4)cc(OC)c1OC (stereo not given)
U251 CNS
  TGI: 21.2 µM
SN12C renal
  TGI: > 52.1 µM
MOLT-4 leukemia
  TGI: 31.8 µM
UACC-257 melanoma
  TGI: > 100 µM
NCI-H23 lung
  TGI: > 48.2 µM
HCC-2998 colon
  TGI: 4 µM
UACC-62 melanoma
  TGI: 14.1 µM
SF-268 CNS
  TGI: > 36.8 µM
A498 renal
  TGI: > 100 µM
ACHN renal
  TGI: > 39.8 µM
NCI-H522 lung
  TGI: 4.02 µM
SK-MEL-28 melanoma
  TGI: > 100 µM
SNB-19 CNS
  TGI: > 100 µM
HL-60(TB) leukemia
  TGI: 0.699 µM
IGROV1 ovarian
  TGI: > 36.5 µM
HT29 colon
  TGI: 3.32 µM
LOX IMVI melanoma
  TGI: 17.2 µM

## CCOC(=O)/C=C/c1c[nH]c(C(=O)OCC)c1
U251 CNS
  TGI: > 100 µM
SN12C renal
  TGI: > 100 µM
MOLT-4 leukemia
  TGI: > 100 µM
UACC-257 melanoma
  TGI: > 100 µM
NCI-H23 lung
  TGI: > 100 µM
HCC-2998 colon
  TGI: > 100 µM
UACC-62 melanoma
  TGI: > 100 µM
HCT-116 colon
  TGI: > 100 µM
SF-268 CNS
  TGI: > 100 µM
A498 renal
  TGI: > 100 µM
NCI-H522 lung
  TGI: > 100 µM
SK-MEL-28 melanoma
  TGI: > 100 µM
SNB-19 CNS
  TGI: > 100 µM
HL-60(TB) leukemia
  TGI: > 100 µM
IGROV1 ovarian
  TGI: > 100 µM
HT29 colon
  TGI: > 100 µM
LOX IMVI melanoma
  TGI: > 100 µM

## COC(=O)c1c(O)ccc2c1c1c(n2-c2ccc(OC)cc2)C(=O)c2ccccc2C1=O
U251 CNS
  TGI: 28.4 µM
SN12C renal
  TGI: > 100 µM
MOLT-4 leukemia
  TGI: > 100 µM
UACC-257 melanoma
  TGI: > 100 µM
NCI-H23 lung
  TGI: > 100 µM
HCC-2998 colon
  TGI: 11.3 µM
HCT-116 colon
  TGI: 30.6 µM
SF-268 CNS
  TGI: 32.4 µM
A498 renal
  TGI: > 100 µM
ACHN renal
  TGI: 25.6 µM
NCI-H522 lung
  TGI: 56.3 µM
MDA-MB-435
  TGI: > 100 µM
SK-MEL-28 melanoma
  TGI: > 100 µM
SNB-19 CNS
  TGI: 44.7 µM
HL-60(TB) leukemia
  TGI: > 100 µM
IGROV1 ovarian
  TGI: 91.6 µM
HT29 colon
  TGI: 15.2 µM
LOX IMVI melanoma
  TGI: > 100 µM
